Drawing on US7723523B2, “Tetrahydropyridothiophenes” (4SC AG, priority 2004, dated 2010), this text covers IC50 for 27 compounds.

Test [1] concerns RKO (RKOp27) human colon adenocarcinoma cells. Kind of test: Alamar Blue cell viability assay, anti-proliferative/cytotoxic activity on proliferating RKOp27 cells. Type of test: cell-based. The settings on record: absence of Ponasterone A, 72 hours incubation, read-out: IC50 RKO p27 proliferating. In short, it runs like this: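 IC50 values come from concentration-effect curves of Alamar Blue fluorescence (544/590 nm), relative to untreated controls set at 100%. Cells were RKOp27, seeded at 4000/well in DMEM with 10% FCS and exposed from 24 h post-seeding for 72 h (37 °C, 5% CO2) to semi-log dilutions, each run in quadruplicate.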
For orientation: The colour change of resazurin is a common sign of viable cells or microbes.

Test [2] concerns RKO colon adenocarcinoma cells (RKOp27) arrested by expression of ectopic p27Kip1. Put plainly: Alamar Blue cell viability assay on RKOp27 cells arrested by Ponasterone A-induced p27Kip1 (cell cycle specific mode of action). Type of test: cell-based. Conditions: Homo sapiens, RKOp27, 72 h, cells arrested by p27Kip1 induced with 10 μM Ponasterone A, 72 hours incubation, read-out: IC50 RKO p27 arrested. In short, it runs like this:
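Viability measured by Alamar Blue fluorescence (ex 544, em 590 nm) after 72 h, 37 °C compound exposure in quadruplicate, normalized to untreated cells as 100%. Cells were p27Kip1-arrested RKOp27, induced with 10 μM Ponasterone A at seeding; compound added 24 h later.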

By IC50 is commonly meant the concentration that inhibits the measured activity by half.

In the case of `CCCCOC(=O)N1CCc2c(sc(NC(=O)/C=C/c3cccnc3)c2C#N)C1` [Example 43, 3-Cyano-2-((E)-3-pyridin-3-yl-allanoylamino)-4,7-dihydro-5H-thieno[2,3-c]pyridine-6-carboxylic acid butyl ester], the half-inhibitory concentration (IC50) in test [1] was at most 2 µM; in test [2] it was over 100 µM.

In the case of `N#Cc1c(NC(=O)/C=C/c2ccccc2)sc2c1CCN(C(=O)OCCc1ccncc1)C2` [Example 126, 3-Cyano-2-((E)-3-phenyl-allanoylamino)-4,7-dihydro-5H-thieno[2,3-c]pyridine-6-carboxylic acid 2-pyridin-4-yl-ethyl ester], the concentration for half-maximal inhibition (IC50) in test [1] is at most 2 µM; in test [2] it was at least 100 µM.

For `N#Cc1c(NC(=O)/C=C/c2cccnc2)sc2c1CCN(C(=O)Cc1cccnc1)C2` [Example 205, (E)-N-[3-Cyano-6-(2-pyridin-3-yl-ethanoyl)-4,5,6,7-tetrahydro-thieno[2,3-c]pyridin-2-yl]-3-pyridin-3-yl-acrylamide], the IC50 is at most 2 µM in test [1] and at least 100 µM in test [2].

For `CCOC(=O)N1CCc2c(sc(NC(=O)/C=C/c3ccoc3)c2C#N)C1` [Example 11, 3-Cyano-2-((E)-3-furan-3-yl-allanoylamino)-4,7-dihydro-5H-thieno[2,3-c]pyridine-6-carboxylic acid ethyl ester], the 50% inhibitory concentration (IC50) in test [1] was at most 2 µM; in test [2], over 100 µM.

On to `CCOc1ccccc1/C=C/C(=O)Nc1sc2c(c1C#N)CCN(C(=O)COC)C2` [Example 223, (E)-N-[3-Cyano-6-(2-methoxy-ethanoyl)-4,5,6,7-tetrahydro-thieno[2,3-c]pyridin-2-yl]-3-(2-ethoxy-phenyl)-acrylamide], for which the IC50 in test [1] was at most 2 µM; in test [2] it was at least 100 µM.

With `N#Cc1c(NC(=O)/C=C/c2cccnc2)sc2c1CCN(C(=O)OCCc1ccccc1)C2` [Example 47, 3-Cyano-2-((E)-3-pyridin-3-yl-allanoylamino)-4,7-dihydro-5H-thieno[2,3-c]pyridine-6-carboxylic acid phenethyl ester], the half-maximal inhibitory concentration (IC50) in test [1] is at most 2 µM; in test [2], over 100 µM.

Turning to `COc1cccc(COC(=O)N2CCc3c(sc(NC(=O)/C=C/c4cccnc4)c3C#N)C2)c1` [Example 147, 3-Cyano-2-((E)-3-pyridin-3-yl-allanoylamino)-4,7-dihydro-5H-thieno[2,3-c]pyridine-6-carboxylic acid 3-methoxy-benzyl ester], the IC50 in test [1] is at most 2 µM; in test [2], at least 100 µM.

`CCOC(=O)N1CCc2c(sc(NC(=O)/C=C/c3cccc([N+](=O)[O-])c3)c2C#N)C1` [Example 29, 3-Cyano-2-[(E)-3-(3-nitro-phenyl)-allanoylamino]-4,7-dihydro-5H-thieno[2,3-c]pyridine-6-carboxylic acid ethyl ester]: the IC50 in test [1] is at most 2 µM; in test [2], over 100 µM.

Consider `CCOC(=O)N1CCc2c(sc(NC(=O)/C=C/c3c(F)cccc3F)c2C#N)C1` [Example 65, 3-Cyano-2-[(E)-3-(2,6-difluoro-phenyl)-allanoylamino]-4,7-dihydro-5H-thieno[2,3-c]pyridine-6-carboxylic acid ethyl ester], for which the half-maximal inhibitory concentration (IC50) in test [1] is at most 2 µM; in test [2], at least 100 µM.

With `CCOC(=O)N1CCc2c(sc(NC(=O)/C=C/c3sccc3C)c2C#N)C1` [Example 75, 3-Cyano-2-[(E)-3-(3-methyl-thiophen-2-yl)-allanoylamino]-4,7-dihydro-5H-thieno[2,3-c]pyridine-6-carboxylic acid ethyl ester], the IC50 in test [1] is at most 2 µM; in test [2] it was at least 100 µM.

Consider `CC(C)(C)OC(=O)N1CCc2c(sc(NC(=O)/C=C/c3ccccc3)c2C#N)C1` [Example 2, N-(6-tert-Butoxycarbonyl-3-cyano-4,5,6,7-tetrahydro-thieno[2,3-c]pyridin-2-yl)-3-phenyl-acrylamide], for which the 50% inhibitory concentration (IC50) in test [1] is at most 2 µM; in test [2], over 100 µM.

Turning to `CCOC(=O)N1CCc2c(sc(NC(=O)/C=C/c3ccccc3)c2C#N)C1` [Example 1, N-(6-Ethoxycarbonyl-3-cyano-4,5,6,7-tetrahydro-thieno[2,3-c]pyridin-2-yl)-3-phenyl-acrylamide], the results for the half-maximal inhibitory concentration (IC50) in test [1] and in test [2] were under 1 µM and over 100 µM, respectively.

Consider `Cc1ncc([N+](=O)[O-])n1CCOC(=O)N1CCc2c(sc(NC(=O)/C=C/c3ccccc3)c2C#N)C1` [Example 122, 3-Cyano-2-((E)-3-phenyl-allanoylamino)-4,7-dihydro-5H-thieno[2,3-c]pyridine-6-carboxylic acid 2-(2-methyl-5-nitro-imidazol-1-yl)-ethyl ester], for which the values for the IC50 in test [1] and in test [2] were at most 2 µM and at least 100 µM, respectively.

Turning to `CCCCCSC(=O)N1CCc2c(sc(NC(=O)/C=C/c3ccccc3)c2C#N)C1` [Example 49, 3-Cyano-2-((E)-3-phenyl-allanoylamino)-4,7-dihydro-5H-thieno[2,3-c]pyridine-6-carbothioic acid S-pentyl ester], the IC50 in test [1] was at most 2 µM; in test [2], at least 100 µM.

`CCOc1ccccc1/C=C/C(=O)Nc1sc2c(c1C#N)CCN(C(=O)CCc1ccccn1)C2` [Example 222, (E)-N-[3-Cyano-6-(3-pyridin-2-yl-propanoyl)-4,5,6,7-tetrahydro-thieno[2,3-c]pyridin-2-yl]-3-(2-ethoxy-phenyl)-acrylamide]: the 50% inhibitory concentration (IC50) in test [1] is at most 0.5 µM; in test [2], at least 50 µM.

Take `CCOC(=O)N1CCc2c(sc(NC(=O)/C=C/c3c(F)cccc3Cl)c2C#N)C1` [Example 67, 2-[(E)-3-(2-Chloro-6-fluoro-phenyl)-allanoylamino]-cyano-4,7-dihydro-5H-thieno[2,3-c]pyridine-6-carboxylic acid ethyl ester]: the IC50 in test [1] was at most 2 µM; in test [2] it was at least 100 µM.

In the case of `CCOC(=O)N1CCc2c(sc(NC(=O)/C=C/c3c(F)ccc(F)c3Cl)c2C#N)C1` [Example 57, 2-[(E)-3-(2-Chloro-3,6-difluoro-phenyl)-allanoylamino]-3-cyano-4,7-dihydro-5H-thieno[2,3-c]pyridine-6-carboxylic acid ethyl ester], the half-maximal inhibitory concentration (IC50) in test [1] was at most 2 µM; in test [2], at least 100 µM.

In the case of `N#Cc1c(NC(=O)/C=C/c2ccco2)sc2c1CCN(C(=O)Cc1ccccn1)C2` [Example 227, (E)-N-[3-Cyano-6-(2-pyridin-2-yl-ethanoyl)-4,5,6,7-tetrahydro-thieno[2,3-c]pyridin-2-yl]-3-furan-2-yl-acrylamide], the IC50 in test [1] was at most 2 µM; in test [2], at least 100 µM.

Take `N#Cc1c(NC(=O)/C=C/c2ccco2)sc2c1CCN(C(=O)OCCc1ccccn1)C2` [Example 243, 3-Cyano-2-((E)-3-furan-2-yl-allanoylamino)-4,7-dihydro-5H-thieno[2,3-c]pyridine-6-carboxylic acid 2-pyridin-2-yl-ethyl ester]: the IC50 in test [1] was at most 2 µM; in test [2], at least 100 µM.

In the case of `CCCOc1ccccc1/C=C/C(=O)Nc1sc2c(c1C#N)CCN(C(=O)OCC)C2` [Example 99, 3-Cyano-2-[(E)-3-(2-propoxy-phenyl)-allanoylamino]-4,7-dihydro-5H-thieno[2,3-c]pyridine-6-carboxylic acid ethyl ester], the figures for the 50% inhibitory concentration (IC50) in test [1] and in test [2] were at most 0.5 µM and at least 50 µM, respectively.

Take `N#Cc1c(NC(=O)/C=C/c2cccnc2)sc2c1CCN(C(=O)Oc1ccccn1)C2` [Example 154, 3-Cyano-2-((E)-3-pyridin-3-yl-allanoylamino)-4,7-dihydro-5H-thieno[2,3-c]pyridine-6-carboxylic acid pyridin-2-yl ester]: the half-maximal inhibitory concentration (IC50) in test [1] is at most 2 µM; in test [2] it was at least 100 µM.

In the case of `N#Cc1c(NC(=O)/C=C/c2ccccc2)sc2c1CCN(C(=O)OCCCN1CCOCC1)C2` [Example 120, 3-Cyano-2-((E)-3-phenyl-allanoylamino)-4,7-dihydro-5H-thieno[2,3-c]pyridine-6-carboxylic acid 3-morpholin-4-yl-propyl ester], the IC50 in test [1] is at most 2 µM; in test [2], at least 100 µM.

Turning to `COCCC(=O)N1CCc2c(sc(NC(=O)/C=C/c3ccccc3OC)c2C#N)C1` [Example 211, (E)-N-[3-Cyano-6-(3-methoxy-propanoyl)-4,5,6,7-tetrahydro-thieno[2,3-c]pyridin-2-yl]-3-(2-methoxy-phenyl)-acrylamide], the concentration for half-maximal inhibition (IC50) in test [1] is at most 2 µM; in test [2], at least 100 µM.

Consider `CCOC(=O)N1CCc2c(sc(NC(=O)/C=C/c3ccccc3O)c2C#N)C1` [Example 95, 3-Cyano-2-[(E)-3-(2-hydroxy-phenyl)-allanoylamino]-4,7-dihydro-5H-thieno[2,3-c]pyridine-6-carboxylic acid ethyl ester], for which the half-maximal inhibitory concentration (IC50) is at most 2 µM in test [1] and at least 100 µM in test [2].

`CCOC(=O)N1CCc2c(sc(NC(=O)/C=C/c3sccc3Cl)c2C#N)C1` [Example 64, 2-[(E)-3-(3-Chloro-thiophen-2-yl)-allanoylamino]-cyano-4,7-dihydro-5H-thieno[2,3-c]pyridine-6-carboxylic acid ethyl ester]: the half-inhibitory concentration (IC50) in test [1] is at most 2 µM; in test [2], at least 100 µM.

Take `CN(C)CCOC(=O)N1CCc2c(sc(NC(=O)/C=C/c3ccccc3)c2C#N)C1` [Example 113, 3-Cyano-2-((E)-3-phenyl-allanoylamino)-4,7-dihydro-5H-thieno[2,3-c]pyridine-6-carboxylic acid 2-dimethylamino-ethyl ester]: the 50% inhibitory concentration (IC50) in test [1] was at most 0.5 µM; in test [2], at least 50 µM.

As to `CCOC(=O)N1CCc2c(sc(NC(=O)/C=C/c3ccccc3OC(F)F)c2C#N)C1` [Example 231, 3-Cyano-2{(E), 3-[2-(1,1-difluoro-methoxy)-phenyl]-allanoylamino}-4,7-dihydro-5H-thieno[2,3-c]pyridine-6-carboxylic acid ethyl ester], the figures for the IC50 in test [1] and in test [2] were at most 2 µM and at least 100 µM, respectively.
